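Briefly, cells in 96-well plates were exposed to five compound concentrations for 48 h, and endpoints were estimated by linear interpolation. GI50 = concentration required for 50% inhibition of growth. TGI is the concentration that stops growth completely.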
Legend:
Assay in all cases: growth of human tumour cells (NCI), 48 h
T-47D breast = system: T-47D breast
NCI-H522 lung = system: NCI-H522 lung
HCC-2998 colon = system: HCC-2998 colon
SK-OV-3 ovarian = system: SK-OV-3 ovarian
UO-31 renal = system: UO-31 renal
HT29 colon = system: HT29 colon
NCI-H460 lung = system: NCI-H460 lung
RXF 393 renal = system: RXF 393 renal
HCT-116 colon = system: HCT-116 colon
A549 NSCLC = system: A549 NSCLC
DU-145 prostate = system: DU-145 prostate
M14 melanoma = system: M14 melanoma
LOX IMVI melanoma = system: LOX IMVI melanoma
SF-295 CNS = system: SF-295 CNS
CAKI-1 renal = system: CAKI-1 renal
SN12C renal = system: SN12C renal
HCT-15 colon = system: HCT-15 colon
NCI/ADR-RES ovarian = system: NCI/ADR-RES ovarian
NCI-H226 lung = system: NCI-H226 lung
MCF7 breast = system: MCF7 breast
MDA-MB-435 = system: MDA-MB-435
SW-620 colon = system: SW-620 colon
MOLT-4 leukemia = system: MOLT-4 leukemia
SK-MEL-28 melanoma = system: SK-MEL-28 melanoma
K-562 leukemia = system: K-562 leukemia
HOP-62 NSCLC = system: HOP-62 NSCLC
A498 renal = system: A498 renal
OVCAR-8 ovarian = system: OVCAR-8 ovarian
HOP-92 NSCLC = system: HOP-92 NSCLC
HL-60(TB) leukemia = system: HL-60(TB) leukemia
SNB-19 CNS = system: SNB-19 CNS
ACHN renal = system: ACHN renal
IGROV1 ovarian = system: IGROV1 ovarian
OVCAR-3 ovarian = system: OVCAR-3 ovarian
NCI-H23 lung = system: NCI-H23 lung
KM12 colon = system: KM12 colon
PC-3 prostate = system: PC-3 prostate
OVCAR-5 ovarian = system: OVCAR-5 ovarian
TK-10 renal = system: TK-10 renal
SF-268 CNS = system: SF-268 CNS
SK-MEL-2 melanoma = system: SK-MEL-2 melanoma
CCRF-CEM leukemia = system: CCRF-CEM leukemia
SR leukemia = system: SR leukemia
EKVX NSCLC = system: EKVX NSCLC
COLO 205 colon = system: COLO 205 colon
786-0 renal = system: 786-0 renal
OVCAR-4 ovarian = system: OVCAR-4 ovarian
MALME-3M melanoma = system: MALME-3M melanoma
UACC-257 melanoma = system: UACC-257 melanoma
U251 CNS = system: U251 CNS
SNB-75 CNS = system: SNB-75 CNS
SF-539 CNS = system: SF-539 CNS
UACC-62 melanoma = system: UACC-62 melanoma
SK-MEL-5 melanoma = system: SK-MEL-5 melanoma
MDA-MB-231 breast = system: MDA-MB-231 breast

## CCOC(=O)/C=C(/N=P(c1ccccc1)(c1ccccc1)c1ccccc1)C(F)(F)F
T-47D breast
  TGI: > 100 µM
NCI-H522 lung
  TGI: > 100 µM
HCC-2998 colon
  TGI: > 100 µM
SK-OV-3 ovarian
  TGI: > 100 µM
UO-31 renal
  TGI: > 100 µM

## O=CC12c3ccccc3C(c3ccccc31)C1C(=O)NC(=O)C12 (centres undefined)
HT29 colon
  TGI: > 100 µM
T-47D breast
  TGI: > 100 µM
NCI-H460 lung
  TGI: > 100 µM
NCI-H522 lung
  TGI: > 100 µM
RXF 393 renal
  TGI: > 100 µM
HCT-116 colon
  TGI: > 100 µM
A549 NSCLC
  TGI: > 100 µM
DU-145 prostate
  TGI: > 100 µM
M14 melanoma
  TGI: > 100 µM
LOX IMVI melanoma
  TGI: > 100 µM
SF-295 CNS
  TGI: > 100 µM
CAKI-1 renal
  TGI: > 100 µM
SN12C renal
  TGI: > 100 µM
HCT-15 colon
  TGI: > 100 µM
NCI/ADR-RES ovarian
  TGI: > 100 µM
NCI-H226 lung
  TGI: > 100 µM
MCF7 breast
  TGI: 47.7 µM
HCC-2998 colon
  TGI: > 100 µM
MDA-MB-435
  TGI: > 100 µM
SW-620 colon
  TGI: > 100 µM
MOLT-4 leukemia
  TGI: > 100 µM
SK-OV-3 ovarian
  TGI: > 100 µM
SK-MEL-28 melanoma
  TGI: > 100 µM
K-562 leukemia
  TGI: > 100 µM
HOP-62 NSCLC
  TGI: > 100 µM
A498 renal
  TGI: 48.2 µM
OVCAR-8 ovarian
  TGI: > 100 µM
HOP-92 NSCLC
  TGI: > 100 µM
HL-60(TB) leukemia
  TGI: > 100 µM
SNB-19 CNS
  TGI: > 100 µM
ACHN renal
  TGI: > 100 µM
IGROV1 ovarian
  TGI: > 100 µM
OVCAR-3 ovarian
  TGI: > 100 µM
NCI-H23 lung
  TGI: > 100 µM
KM12 colon
  TGI: > 100 µM
PC-3 prostate
  TGI: > 100 µM
OVCAR-5 ovarian
  TGI: > 100 µM
TK-10 renal
  TGI: > 100 µM
SF-268 CNS
  TGI: > 100 µM
SK-MEL-2 melanoma
  TGI: > 100 µM
CCRF-CEM leukemia
  TGI: > 100 µM
SR leukemia
  TGI: > 100 µM
EKVX NSCLC
  TGI: > 100 µM
COLO 205 colon
  TGI: > 100 µM
UO-31 renal
  TGI: > 100 µM
786-0 renal
  TGI: > 100 µM
OVCAR-4 ovarian
  TGI: > 100 µM
MALME-3M melanoma
  TGI: > 100 µM
UACC-257 melanoma
  TGI: > 100 µM
U251 CNS
  TGI: > 100 µM
SNB-75 CNS
  TGI: > 100 µM
SF-539 CNS
  TGI: > 100 µM
UACC-62 melanoma
  TGI: > 100 µM
SK-MEL-5 melanoma
  TGI: > 100 µM
MDA-MB-231 breast
  TGI: > 100 µM

## COc1ccc2c(NCCCCCCCCNc3c4ccccc4nc4cc(OC)ccc34)c3ccccc3nc2c1
T-47D breast
  GI50: 0.0508 µM
  TGI: 0.295 µM
NCI-H522 lung
  GI50: 0.011 µM
  TGI: 0.187 µM
RXF 393 renal
  GI50: 0.117 µM
  TGI: 0.332 µM
DU-145 prostate
  GI50: 0.0498 µM
  TGI: 0.339 µM
NCI-H226 lung
  GI50: 0.128 µM
  TGI: 0.961 µM
MCF7 breast
  GI50: 0.0279 µM
  TGI: 0.192 µM
HCC-2998 colon
  GI50: 0.0718 µM
  TGI: 0.254 µM
MOLT-4 leukemia
  GI50: 0.0546 µM
  TGI: 2.32 µM
K-562 leukemia
  GI50: 0.0529 µM
  TGI: 0.3 µM
HOP-62 NSCLC
  GI50: 0.0658 µM
  TGI: 0.318 µM
A498 renal
  GI50: 0.129 µM
  TGI: 0.437 µM
HOP-92 NSCLC
  GI50: 1.24 µM
  TGI: 2.58 µM
HL-60(TB) leukemia
  GI50: 0.363 µM
  TGI: 2.13 µM
IGROV1 ovarian
  TGI: 0.108 µM
TK-10 renal
  GI50: 0.126 µM
  TGI: 0.763 µM
SK-MEL-2 melanoma
  GI50: 0.162 µM
  TGI: 0.358 µM
CCRF-CEM leukemia
  GI50: 0.0253 µM
  TGI: 0.431 µM
UO-31 renal
  GI50: 0.0488 µM
  TGI: 0.223 µM
OVCAR-4 ovarian
  GI50: 0.0938 µM
  TGI: 0.446 µM
UACC-257 melanoma
  GI50: 0.221 µM
  TGI: 1.07 µM
